Measurements from paper PMC6980506, “Comparative pharmacokinetics and pharmacodynamics of the advanced Retinol-Binding Protein 4 antagonist in dog and cynomolgus monkey” (PLoS ONE, 2020).

Experiments:
[1] = Metabolic stability in human liver microsomes; format: in vitro ADME; conditions: both sexes, pH 7.4, 1 mg/mL, read-out: Microsomal Stability (% Remaining at 30 min)
Description: All measurements were done in duplicate. Pooled mixed gender human donor microsomes, male beagle dog microsomes and male cynomolgus monkey were obtained from BioIVT (Baltimore, MD). […] A mixture containing 50 mM potassium phosphate buffer pH 7.4 and 1 mg/mL liver microsomes was pre-warmed for 10 min at 37°C in a shaking water bath, followed by the addition of test compound. Final DMSO concentration in the reaction mix was 0.1%. […] The final volume of the reaction mixture was 800 μL, containing 1 mg/mL liver microsomes, and 1 μM test compound. Aliquots (100 μL) of reaction mixtures were removed from the incubation plate at pre-defined timepoints and mixed with 150 μL of ice-cold acetonitrile, incubated on ice for 15 min, and samples were centrifuged (3,600 rpm, 10 min, 4°C) to precipitate protein. The supernatants were diluted 1:1 (v/v) with water containing the internal standard and subjected to the LC/MS analysis.

[2] = Metabolic clearance in human hepatocytes; format: in vitro ADME; conditions: cryopreserved hepatocytes, read-out: Hepatocyte CLint (intrinsic clearance)
Description: (§1) All measurements were done in duplicate. Testosterone and 7-hydroxycoumarin were used as positive controls. Pooled cryopreserved human hepatocytes, cryopreserved male beagle dog hepatocytes, and cryopreserved male cynomolgus monkey hepatocytes were obtained from BioIVT (Baltimore, MD). Compound at 1 μM was incubated with 1 x 10^6 cells. Final DMSO concentration in the reaction mix was 0.1%. Aliquots (100 μL) of reaction mixtures were removed from the incubation plate at different timepoints and mixed with 150 μL of ice-cold acetonitrile. After incubation on ice for 15 min, the samples were centrifuged (3,600 rpm, 10 min, 4°C) to precipitate protein. The supernatants were diluted 1:1 (v/v) with water containing internal standards and subjected to the LC/MS analysis. Hepatic clearance was calculated using the well-stirred liver model

[3] = Metabolic clearance in dog hepatocytes; format: in vitro ADME; conditions: male, beagle, cryopreserved hepatocytes, read-out: Hepatocyte CLint (intrinsic clearance)
Description: as §1

plasma RBP4 = test: Plasma RBP4 lowering (ELISA) in beagle dog; format: in vivo
Description: Pharmacokinetic studies were conducted in male beagle dogs and male cynomolgus monkeys at SRI International, Menlo Park, CA. General procedures for animal care and housing were in accordance with the National Research Council (NRC) Guide for the Care and Use of Laboratory Animals (1996) and the Animal Welfare Standards incorporated in 9 CFR Part 3, 1991 and complied with guidelines set forth by the ARVO Animal Statement for the Use of Animals in Ophthalmic and Vision Research. During the course of the PK experiments, cynomolgus monkeys were individually housed in stainless steel primary enclosures in an AAALAC-accredited facility. Animals were fed a commercial monkey chow, and supplemental food was provided (fresh fruits, vegetables, seeds, and nuts). Reverse osmosis-purified drinking water was available at all times. Cynomolgus monkeys were maintained on a 12:12 hour light:dark cycle at the 64–84°F temperature and 30–70% humidity. Monkeys had access to enrichment opportunities (grooming devices, foraging devices, activity panels and mirrors) and were provided auditory stimuli and human interaction enrichment throughout the study. Blood samples were collected by venipuncture of a peripheral vein. Animals were acclimated to the squeeze back mechanism in their home cage by repeated, short periods of restraint during general husbandry procedures for at least 2 weeks prior to dosing. Animal were not removed from their cages for collection, and no anesthesia/analgesic agents were used for blood collection. […] For PK experiments, beagle dogs were individually housed in enclosed run (≥ 4 ft x 6 ft). Dogs were exposed to their daily ration of food, Harlan Teklad 2025C Certified Global 25% Protein Dog Diet. Water was provided from the public water supply (municipal tap water) ad libitum. Dogs were maintained on a 12:12 hour light:dark cycle at the 72–73°F temperature and 40–71% humidity. Every effort was made to minimize, if not eliminate, pain and suffering in all animals in this study. No restraining devices were used in blood collecting procedures. Dogs were gentle hand-held to restrain by trained technicians with the dogs foreleg extended for sample collection of blood from cephalic vein. Animals were awake during blood sample collection with no anesthesia/analgesic agents used, and positive reinforcement by the technician was provided following collection. […] All dogs were released back to the colony after the study was completed. Male beagle dogs and male cynomolgus monkey received a single i.v. dose of a test compound at 0.5 mg kg^−1 (dog) and 1 mg kg^−1 (monkey) or a single p.o. dose of a test compound of at 2 mg kg^−1 (dog) and 5 mg kg^−1 (monkey). The number of animals that was used in PK experiments is 3 per study group. Intravenous administration vehicle was 3% DMA/45% PEG300/12% ethanol/40% sterile water; p.o. vehicle was 2% Tween 80 in 0.9% saline. Blood was collected from dogs and monkeys at pre-dose and at 5, 15 and 30 min, and 1, 2, 4, 6, 8, 12, 24, 36 and 48 h post-dose in the i.v. arms and at 15 and 30 min, and 1, 2, 4, 6, 8, 12, 24, 36 and 48 h post-dose in the p.o. arm. […] Following protein extraction with acetonitrile, compound concentrations in plasma were measured by LC-MS/MS. The plasma drug level data were analyzed using WinNonlin software package; Model 201 (for i.v. bolus administration);was used for the analysis of i.v. data, and Model 200 (for extravascular administration) was used for the analysis of the p.o. data. […]

serum RBP4 = test system: serum RBP4; set-up: method as in PMID 29871924; conditions: mice; cited from earlier work
bisretinoid synthesis = test system: bisretinoid synthesis; set-up: method as in PMID 29871924; conditions: Abca4-/- mouse model of Stargardt disease; cited from earlier work

Cc1cc(C(=O)O)nc(N2C[C@H]3C[C@@H](c4ccccc4C(F)(F)F)C[C@H]3C2)n1 [BPN-14136]
remaining at 0.5 h, 1 μM [1]: 94%
hepatocyte CLint at 1 μM [2]: < 0.7 µL/min/1e6 cells
hepatocyte CLint at 1 μM [3]: < 0.7 µL/min/1e6 cells
plasma RBP4 lowering (plasma RBP4; single 0.5 mg kg^−1 i.v. dose): 50%
reduction of RBP4 (plasma RBP4; single 2 mg kg^−1 oral dose, 24 h): 53%
reduction of RBP4 (plasma RBP4; single 2 mg kg^−1 oral dose, 36 h): 42%
reduction of RBP4 (plasma RBP4; single 2 mg kg^−1 oral dose, 48 h): 39%
maximal plasma RBP4 reduction (plasma RBP4; single 2 mg kg^−1 oral dose, at 8 hours post-dosing): 60%
serum RBP4 lowering (serum RBP4): 90%
bisretinoid synthesis (bisretinoid synthesis): significantly inhibited bisretinoid synthesis
